According to patent US9902728B2, “Pyrrolo and pyrazolopyrimidines as ubiquitin-specific protease 7 inhibitors” (Forma Therapeutics, Inc., priority 2014, dated 2018):
Like-named read-outs stand apart in the source and are kept apart here.

Molecular target: T1, USP7 (Homo sapiens, UniProt Q93009)
T1 construct: USP7, construct USP7 (208-1102) 6*His, Viva Biotech; 6xHis (C); purchased Viva Biotech
Experiment: USP7 Assay A (Ubitquin-Rhodamine 110 Assay)
Type: biochemical
Details: read-out: USP7_IC50
Method in brief: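 Enzyme and compound sat together for 30 min before Ub-Rh110 was added, in buffer of 20 mM Tris-HCl (pH 8.0), 1 mM GSH, 0.03% BGG and 0.01% Triton X-100.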

[1] = USP7 assay A and B (table does not say which assay per compound), Ubiquitin-Rhodamine 110 substrate
[2] = USP7 assay A and B (table does not say which assay per compound)
[3] = USP7 activity in USP7 assay A and B (table does not say which assay per compound)

T1 sequence (Q93009 208-1102): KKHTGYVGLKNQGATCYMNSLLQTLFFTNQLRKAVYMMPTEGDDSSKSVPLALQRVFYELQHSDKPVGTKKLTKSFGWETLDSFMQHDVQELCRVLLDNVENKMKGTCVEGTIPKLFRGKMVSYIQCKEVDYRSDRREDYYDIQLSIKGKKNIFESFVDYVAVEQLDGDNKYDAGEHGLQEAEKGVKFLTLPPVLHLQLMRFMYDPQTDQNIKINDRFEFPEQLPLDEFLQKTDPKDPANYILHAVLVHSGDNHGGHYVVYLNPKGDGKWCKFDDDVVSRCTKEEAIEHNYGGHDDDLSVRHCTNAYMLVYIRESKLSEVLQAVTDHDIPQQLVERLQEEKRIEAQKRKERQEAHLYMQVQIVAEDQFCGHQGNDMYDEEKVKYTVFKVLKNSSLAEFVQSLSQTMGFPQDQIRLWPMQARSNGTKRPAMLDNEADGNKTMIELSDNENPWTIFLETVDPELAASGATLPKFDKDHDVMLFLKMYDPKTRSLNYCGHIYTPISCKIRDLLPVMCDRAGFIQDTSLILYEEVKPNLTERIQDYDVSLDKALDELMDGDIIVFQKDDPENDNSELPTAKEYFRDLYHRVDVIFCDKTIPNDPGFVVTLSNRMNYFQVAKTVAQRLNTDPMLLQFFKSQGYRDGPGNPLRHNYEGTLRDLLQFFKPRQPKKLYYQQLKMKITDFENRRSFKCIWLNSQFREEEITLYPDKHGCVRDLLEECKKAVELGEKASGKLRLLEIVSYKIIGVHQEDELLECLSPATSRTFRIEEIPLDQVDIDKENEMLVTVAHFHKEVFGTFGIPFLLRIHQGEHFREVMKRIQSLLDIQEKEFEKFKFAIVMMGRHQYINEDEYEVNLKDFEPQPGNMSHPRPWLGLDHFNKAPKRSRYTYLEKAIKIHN

| SMILES | IC50 [2] | IC50 [3] | further results |
| --- | --- | --- | --- |
| C[C@H](CC(=O)N1CCC(O)(Cn2cnc3c(cnn3C)c2=O)CC1)c1ccccc1 [Compound I-57] | – | – | IC50 [1]: 0.2 to 1 µM |
| O=C(C[C@H](c1ccccc1)C(F)F)N1CCC(O)(Cn2cnc3c(cnn3-c3ccccc3)c2=O)CC1 [Compound I-1104] | 1 to 10 µM | – | – |
| Cc1cn(-c2ccc(-n3ncc4c(=O)n(CC5(O)CCN(C(=O)c6ccc(F)cc6)CC5)cnc43)cc2)cn1 [Compound I-987] | – | 1 to 10 µM | – |
| CC1(COc2ccc(-n3ncc4c(=O)n(CC5(O)CCN(C(=O)C6(C)CCC6)CC5)cnc43)cc2)COC1 [Compound I-1136] | – | < 0.2 µM | – |
| CC1(C(=O)N2CCC(O)(Cn3cnc4c(cnn4-c4cccc(N5CC(C(C)(C)O)C5)c4)c3=O)CC2)CC1 [Compound I-1676] | – | < 0.2 µM | – |
| O=C(c1cnn(C2CC2)c1)N1CCC(O)(Cn2cnc3c(cnn3-c3ccc(F)cc3)c2=O)CC1 [Compound I-726] | – | 0.2 to 1 µM | – |
| NCc1cccc(C(=O)N2CCC(O)(Cn3cnc4c(cnn4-c4ccccc4)c3=O)CC2)c1 [Compound I-20] | 1 to 10 µM | – | – |
| O=C(c1ccccc1)N1CCC(O)(Cn2cnc3c(cnn3-c3ccc(F)cc3)c2=O)CC1 [Compound I-266] | 1 to 10 µM | – | – |
| Cc1ccc(-n2ncc3c(=O)n(CC4(O)CCN(C(=O)C[C@H](C(F)F)n5ccc(F)n5)CC4)cnc32)cc1 [Compound I-796] | – | < 0.2 µM | – |
| N#CCOc1ccc(-n2ncc3c(=O)n(CC4(O)CCN(C(=O)c5ccc(F)cc5)CC4)cnc32)cc1 [Compound I-1320] | 1 to 10 µM | – | – |
| CC(CC(=O)N1CCC(O)(Cn2cnc3c(cnn3-c3ccc(-c4ccc(F)cc4)cc3)c2=O)CC1)n1cccn1 (centres unmarked) [Compound I-652] | 0.2 to 1 µM | – | – |
| O=C(C1CC1)N1CCC(O)(Cn2cnc3c(cnn3-c3ccc(-c4cnn5c4COCC5)cc3)c2=O)CC1 [Compound I-1673] | – | 1 to 10 µM | – |
| CNC(=O)N1CCC(O)(Cn2cnc3c(cnn3-c3ccc(F)cc3)c2=O)CC1 [Compound I-284, 4-{[1-(4-fluorophenyl)-4-oxo-1H,4H,5H-pyrazolo[3,4-d]pyrimidin-5-yl]methyl}-4-hydroxy-N-methylpiperidine-1-carboxamide] | 1 to 10 µM | – | – |
| O=C(Nc1ccc(-n2ncc3c(=O)n(CC4(O)CCN(C(=O)C5CC5)CC4)cnc32)cc1)c1ccccn1 [Compound I-1383] | 1 to 10 µM | – | – |
| CC1(C(=O)N2CCC(O)(Cn3cnc4c(cnn4-c4ccc(-n5cc(C(F)(F)F)cn5)cc4)c3=O)CC2)CC1 [Compound I-1043] | – | 0.2 to 1 µM | – |
| O=C(c1ccc(-n2ncc3c2CNC3)cc1)N1CCC(O)(Cn2cnc3c(cnn3-c3ccc(F)cc3)c2=O)CC1 [Compound I-611] | – | 1 to 10 µM | – |
| O=C(NCCO)c1cccc(-c2cccc(-n3ncc4c(=O)n(CC5(O)CCN(C(=O)C6CC6)CC5)cnc43)c2)c1 [Compound I-409] | 1 to 10 µM | – | – |
| CN(C)C(=O)N1CCC(O)(Cn2cnc3c(cnn3-c3ccc(Oc4ccccc4)cc3)c2=O)CC1 [Compound I-500] | > 10 µM | – | – |
| CC(CC(=O)N1CCC(O)(Cn2cnc3c(cnn3-c3ccc(F)cc3)c2=O)CC1)N1CC2CCCC2C1 (centres unmarked) [Compound I-523] | > 10 µM | – | – |
| O=C(C1CC1)N1CCC(O)(Cn2cnc3c(cnn3-c3ccc(N4CCC5(CC4)CC(CO)C5)cc3)c2=O)CC1 [Compound I-1741] | – | 0.2 to 1 µM | – |
| O=C(c1cnc(C2CC2)o1)N1CCC(O)(Cn2cnc3c(cnn3-c3ccc(C(F)(F)F)cc3)c2=O)CC1 [Compound I-1437] | 1 to 10 µM | – | – |
| Cc1nccc(OC2CCC(C(=O)N3CCC(O)(Cn4cnc5c(cnn5-c5ccc(F)cc5)c4=O)CC3)CC2)n1 (centres unmarked) [Compound I-1016] | – | 0.2 to 1 µM | – |
| O=C(C[C@@H](C(F)F)n1cc(Cl)cn1)N1CCC(O)(Cn2cnc3c(cnn3-c3ccc(F)cc3)c2=O)CC1 [Compound I-734] | – | > 10 µM | – |
| O=C(c1ccncc1)N1CCC(O)(Cn2cnc3c(cnn3-c3ccccc3)c2=O)CC1 [Compound I-191] | 1 to 10 µM | – | – |

| SMILES | IC50 [2] | IC50 [3] | further results |
| --- | --- | --- | --- |
| Cn1cc(-c2ccc(-n3ncc4c(=O)n(CC5(O)CCN(C(=O)c6ccc(F)cc6)CC5)cnc43)cc2)cn1 [Compound I-1672] | – | 1 to 10 µM | – |
| O=C(C1CC1)N1CCC(O)(Cn2cnc3c(cnn3-c3ccc(Nc4ccc(N5CCOCC5)cc4)cc3)c2=O)CC1 [Compound I-1234] | 1 to 10 µM | – | – |
| C[C@H](CC(=O)N1CCC(O)(Cn2cnc3c(cnn3-c3ccc(N4CC[C@](C)(O)C4)cc3)c2=O)CC1)n1cccn1 [Compound I-839] | – | < 0.2 µM | – |
| O=C(c1ccc(F)cc1)N1CCC(O)(Cn2cnc3c(cnn3-c3ccc(-c4cnn(C5CS(=O)(=O)C5)c4)cc3)c2=O)CC1 [Compound I-1745] | – | 0.2 to 1 µM | – |
| O=C(c1cccc(Cl)c1)N1CCC(O)(Cn2cnc3c(cnn3-c3ccc(F)cc3)c2=O)CC1 [Compound I-303] | 1 to 10 µM | – | – |
| CN(C)C(=O)N1CCC(O)(Cn2cnc3c(cnn3-c3ccc(OCC4CC4)cc3)c2=O)CC1 [Compound I-1289] | 1 to 10 µM | – | – |
| Cc1snc(Cc2ccccc2)c1C(=O)N1CCC(O)(Cn2cnc3c(cnn3-c3ccc(F)cc3)c2=O)CC1 [Compound I-1110] | – | < 0.2 µM | – |
| O=C(O)c1ccc(C(=O)N2CCC(O)(Cn3cnc4c(cnn4-c4ccccc4)c3=O)CC2)cc1 [Compound I-272] | 1 to 10 µM | – | – |
| O=C(Nc1ccc(-n2ncc3c(=O)n(CC4(O)CCN(C(=O)C5CC5)CC4)cnc32)cc1)C1CCOCC1 [Compound I-1395] | 1 to 10 µM | – | – |
| CC1(C(=O)N2CCC(O)(Cn3cnc4c(cnn4-c4ccc(N5CCC(F)CC5)cc4)c3=O)CC2)CC1 [Compound I-1445] | – | 0.2 to 1 µM | – |
| CC1(COc2ccc(-n3ncc4c(=O)n(CC5(O)CCN(C(=O)c6cnc(C7CC7)o6)CC5)cnc43)cc2)CCC1 [Compound I-1508] | – | 0.2 to 1 µM | – |
| CNC(=O)c1ccc(C(=O)N2CCC(O)(Cn3cnc4c(cnn4-c4ccccc4)c3=O)CC2)cc1 [Compound I-184] | 0.2 to 1 µM | – | – |
| O=C(C1CCC(NC2CC2)CC1)N1CCC(O)(Cn2cnc3c(cnn3-c3ccc(F)cc3)c2=O)CC1 (centres unmarked) [Compound I-1072] | – | 1 to 10 µM | – |
| Cc1nc2n(n1)CCN(c1ccc(-n3ncc4c(=O)n(CC5(O)CCN(C(=O)c6ccc(F)cc6)CC5)cnc43)cc1)C2 [Compound I-1176] | – | 1 to 10 µM | – |
| O=C(N1CCC(O)(Cn2cnc3c(cnn3-c3ccccc3)c2=O)CC1)C12CC(C1)C2 [Compound I-289] | 0.2 to 1 µM | – | – |
| O=C(C[C@H](C(F)F)n1ccc(F)n1)N1CCC(O)(Cn2cnc3c(cnn3-c3cccc(N4CCOCC4)c3)c2=O)CC1 [Compound I-788] | – | 1 to 10 µM | – |
| C=CC(=O)N1CCC1C(=O)N1CCC(O)(Cn2cnc3c(cnn3-c3cccc(N4CCN(C)CC4)c3)c2=O)CC1 (centres unmarked) [Compound I-831] | – | < 0.2 µM | – |
| CS(=O)(=O)Nc1cccc(-n2ncc3c(=O)n(CC4(O)CCN(C(=O)C5CC5)CC4)cnc32)c1 [Compound I-1417] | 1 to 10 µM | – | – |
| O=C(c1ccc(F)cc1)N1CCC(O)(Cn2cnc3c(cnn3-c3ccccc3)c2=O)CC1 [Compound I-190] | 0.2 to 1 µM | – | – |
| C[C@@H](CC(=O)N1CCC(O)(Cn2cnc3c(cnn3-c3ccc(F)cc3)c2=O)CC1)n1ccc(F)n1 [Compound I-1029] | – | 1 to 10 µM | – |
| CC(CC(=O)N1CCC(O)(Cn2cnc3c(cnn3C)c2=O)CC1)c1ccccc1 (centres unmarked) [Compound I-1, 5-((4-Hydroxy-1-(3-phenylbutanoyl)piperidin-4-yl)methyl)-1-methyl-1,5-dihydro-4H-pyrazolo[3,4-d]pyrimidin-4-one] | – | – | IC50 [1]: 0.2 to 1 µM |
| CC1(C(=O)N2CCC(O)(Cn3cnc4c(cnn4-c4ccc(N5CCC6(CC5)CC(F)(F)C6)cc4)c3=O)CC2)CCC1 [Compound I-1718] | – | < 0.2 µM | – |
| Cn1ncc2c(=O)n(CC3(O)CCN(C(=O)c4ccc(Nc5ccccc5)cc4)CC3)cnc21 [Compound I-13] | 1 to 10 µM | – | – |
